Assay results reported in the supplement of paper PMC11451515.

System: NOMO1
Assay: cell viability relative to DMSO control; higher = less cytotoxic
Settings: 48 h
Outline: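 NOMO1, SEM and P12-Ichikawa leukemia cells spent at least four passages adapting to each medium before use. They were seeded at 500 cells/well (NOMO1, SEM) or 1000 cells/well (P12-Ichikawa) in 5 μl in 1536-well plates and pin-dosed with library compounds in DMSO at 11 threefold steps from 47 μM down to 0.79 nM. After 48 h at 37°C, CellTiter-Glo One luminescence was read. Viability is reported as a percentage of the DMSO wells on each plate, with cell-free wells as background.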

COc1ccc(C2Sc3ccccc3N(CCN(C)C)C(=O)C2OC(C)=O)cc1 (stereo not drawn)
cell viability [%]
Settings | HPLM + 10% dialyzed FBS | RPMI 5 mM glucose + 10% FBS | RPMI 5 mM glucose + 10% dialyzed FBS
0.000781 µM | 118 | 97.3 | 115
0.00234 µM | 114 | 108 | 104
0.00702 µM | 124 | 105 | 112
0.0211 µM | 114 | 96.9 | 107
0.0632 µM | 112 | 100 | 113
0.19 µM | 114 | 108 | 111
0.569 µM | 113 | 99 | 115
1.71 µM | 120 | 102 | 109
5.12 µM | 119 | 100 | 100
15.4 µM | 110 | 95.4 | 98.7
46.1 µM | 89.2 | 94.8 | 85.2
